Assay results: US9926282B2, “Phthalazinones and isoquinolinones as rock inhibitors” (BRISTOL-MYERS SQUIBB COMPANY, priority 2013, dated 2018)
pIC50: −log10 of the molar value. Structures can show the parent of a compound that is named as a salt.

Legend:
ROCK1 = ROCK1 (Homo sapiens (Human), UniProt Q13464); assay: ROCK assay (LABCHIP peptide phosphorylation), ROCK1; assay type: biochemical; conditions: 5 μM ATP, 1.5 μM peptide substrate; read-out: ROCK1 IC50
ROCK2 = ROCK2 (Homo sapiens (Human), UniProt O75116); assay: ROCK assay (LABCHIP peptide phosphorylation), ROCK2; assay type: biochemical; conditions: 5 μM ATP, 1.5 μM peptide substrate
ROCK2, sequence (O75116 whole entry, species assumed): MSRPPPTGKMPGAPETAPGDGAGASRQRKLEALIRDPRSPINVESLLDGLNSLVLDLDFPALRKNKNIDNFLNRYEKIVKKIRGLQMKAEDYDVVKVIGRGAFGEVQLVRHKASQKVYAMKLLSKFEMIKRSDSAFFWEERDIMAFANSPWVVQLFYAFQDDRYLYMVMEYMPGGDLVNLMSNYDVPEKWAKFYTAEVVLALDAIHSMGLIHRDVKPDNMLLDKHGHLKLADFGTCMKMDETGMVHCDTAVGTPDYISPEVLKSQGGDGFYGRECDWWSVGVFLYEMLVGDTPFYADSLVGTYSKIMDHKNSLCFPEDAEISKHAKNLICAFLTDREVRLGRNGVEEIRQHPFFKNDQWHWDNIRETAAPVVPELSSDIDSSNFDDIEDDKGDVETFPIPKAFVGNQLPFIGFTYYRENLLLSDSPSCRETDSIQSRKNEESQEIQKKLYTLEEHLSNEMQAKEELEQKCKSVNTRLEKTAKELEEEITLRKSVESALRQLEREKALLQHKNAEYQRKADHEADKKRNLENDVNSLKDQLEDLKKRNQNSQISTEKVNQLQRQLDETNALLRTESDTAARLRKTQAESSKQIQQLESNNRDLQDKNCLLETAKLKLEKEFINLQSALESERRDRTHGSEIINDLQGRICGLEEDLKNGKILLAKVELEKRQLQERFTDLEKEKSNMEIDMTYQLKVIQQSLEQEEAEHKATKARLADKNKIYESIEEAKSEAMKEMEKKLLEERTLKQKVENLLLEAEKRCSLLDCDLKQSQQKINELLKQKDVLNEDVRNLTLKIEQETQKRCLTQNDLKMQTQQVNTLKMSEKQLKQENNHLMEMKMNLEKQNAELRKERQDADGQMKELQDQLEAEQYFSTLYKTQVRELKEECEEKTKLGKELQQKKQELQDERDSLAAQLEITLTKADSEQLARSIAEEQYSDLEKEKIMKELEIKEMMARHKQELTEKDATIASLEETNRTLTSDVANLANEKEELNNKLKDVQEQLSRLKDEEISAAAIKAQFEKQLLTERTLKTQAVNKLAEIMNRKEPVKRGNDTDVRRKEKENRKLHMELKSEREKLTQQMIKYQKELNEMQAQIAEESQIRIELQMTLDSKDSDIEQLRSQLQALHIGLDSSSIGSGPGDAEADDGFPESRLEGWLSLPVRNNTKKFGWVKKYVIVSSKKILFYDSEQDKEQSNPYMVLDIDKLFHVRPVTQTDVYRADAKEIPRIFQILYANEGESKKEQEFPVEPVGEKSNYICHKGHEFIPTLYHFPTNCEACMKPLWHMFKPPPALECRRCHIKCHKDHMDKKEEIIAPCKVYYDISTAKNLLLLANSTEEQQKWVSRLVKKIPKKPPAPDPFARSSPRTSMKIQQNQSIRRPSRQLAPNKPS

ROCK1, sequence (Q13464 whole entry, species assumed): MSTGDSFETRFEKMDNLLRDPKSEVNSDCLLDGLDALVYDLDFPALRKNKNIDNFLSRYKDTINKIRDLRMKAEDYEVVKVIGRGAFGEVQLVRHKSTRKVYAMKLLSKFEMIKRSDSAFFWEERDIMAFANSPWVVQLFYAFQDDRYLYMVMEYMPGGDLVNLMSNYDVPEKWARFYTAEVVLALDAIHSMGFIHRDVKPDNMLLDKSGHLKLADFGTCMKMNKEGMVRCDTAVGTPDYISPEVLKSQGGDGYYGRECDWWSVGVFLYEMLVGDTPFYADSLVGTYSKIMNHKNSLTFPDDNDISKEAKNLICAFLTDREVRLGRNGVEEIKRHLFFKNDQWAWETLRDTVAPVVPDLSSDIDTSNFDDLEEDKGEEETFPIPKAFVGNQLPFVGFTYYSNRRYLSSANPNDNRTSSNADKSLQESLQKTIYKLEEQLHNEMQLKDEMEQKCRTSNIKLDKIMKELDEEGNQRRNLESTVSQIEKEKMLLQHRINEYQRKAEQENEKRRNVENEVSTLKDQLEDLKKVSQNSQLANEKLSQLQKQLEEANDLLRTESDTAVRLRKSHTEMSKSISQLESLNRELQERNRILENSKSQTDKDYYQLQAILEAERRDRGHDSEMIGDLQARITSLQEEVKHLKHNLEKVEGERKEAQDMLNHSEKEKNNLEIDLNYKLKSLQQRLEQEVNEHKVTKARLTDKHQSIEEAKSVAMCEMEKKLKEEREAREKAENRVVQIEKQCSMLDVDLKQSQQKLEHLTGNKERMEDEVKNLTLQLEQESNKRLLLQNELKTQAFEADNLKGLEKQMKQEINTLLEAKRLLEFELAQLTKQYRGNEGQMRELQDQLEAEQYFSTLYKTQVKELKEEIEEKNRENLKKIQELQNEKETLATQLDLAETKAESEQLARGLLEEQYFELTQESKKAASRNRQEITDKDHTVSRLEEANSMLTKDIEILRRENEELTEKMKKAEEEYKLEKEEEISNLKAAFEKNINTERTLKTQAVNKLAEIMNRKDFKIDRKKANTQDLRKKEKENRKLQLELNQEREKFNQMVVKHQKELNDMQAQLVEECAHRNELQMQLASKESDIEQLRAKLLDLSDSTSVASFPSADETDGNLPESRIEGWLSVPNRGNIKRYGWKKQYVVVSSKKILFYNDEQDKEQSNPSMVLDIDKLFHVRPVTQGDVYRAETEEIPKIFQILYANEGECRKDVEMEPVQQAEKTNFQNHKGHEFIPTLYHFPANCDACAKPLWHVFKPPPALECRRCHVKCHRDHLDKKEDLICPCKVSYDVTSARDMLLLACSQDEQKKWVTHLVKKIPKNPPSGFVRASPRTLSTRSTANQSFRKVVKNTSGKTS

Row | Compound | pIC50 (ROCK1) | pIC50 (ROCK2)
1 | Cc1cc(NC(=O)c2cn(CC(C)(C)O)c3ccccc23)ccc1-c1n[nH]c(=O)c2ccccc12 [Example 302, 1-(2-hydroxy-2-methylpropyl)-N-[3-methyl-4-(4-oxo-3,4-dihydrophthalazin-1-yl)phenyl]-1H-indole-3-carboxamide] | 7.00 to 10.00 | 7.00 to 10.00
2 | Cc1cc(NC(=O)c2nn(CCN(C)C)c3ccccc23)ccc1-c1n[nH]c(=O)c2ccccc12 [Example 303, 1-[2-(dimethylamino)ethyl]-N-[3-methyl-4-(4-oxo-3,4-dihydrophthalazin-1-yl)phenyl]-1H-indazole-3-carboxamide] | 6.00 to 7.00 | 7.00 to 10.00
3 | Cc1cc(NC(=O)c2c3ccccc3nn2CCN(C)C)ccc1-c1n[nH]c(=O)c2ccccc12 [Example 304, 2-[2-(dimethylamino)ethyl]-N-[3-methyl-4-(4-oxo-3,4-dihydrophthalazin-1-yl)phenyl]-2H-indazole-3-carboxamide] | 6.00 to 7.00 | 7.00 to 10.00
4 | Cc1cc(NC(=O)c2c3ccccc3nn2CC2COC2)ccc1-c1n[nH]c(=O)c2ccccc12 [Example 305, N-[3-methyl-4-(4-oxo-3,4-dihydrophthalazin-1-yl)phenyl]-2-(oxetan-3-ylmethyl)-2H-indazole-3-carboxamide] | 4.30 to 6.00 | 4.30 to 6.00
5 | Cc1cc(NC(=O)c2onc3ccccc23)ccc1-c1n[nH]c(=O)c2ccccc12 [Example 306, N-[3-methyl-4-(4-oxo-3,4-dihydrophthalazin-1-yl)phenyl]-2,1-benzoxazole-3-carboxamide] | 6.00 to 7.00 | 7.00 to 10.00
6 | Cc1cc(NC(=O)c2nn(CC3CCN(C(=O)OCc4ccccc4)CC3)c3ccccc23)ccc1-c1n[nH]c(=O)c2ccccc12 [Example 307, benzyl 4-[(3-{[3-methyl-4-(4-oxo-3,4-dihydrophthalazin-1-yl)phenyl]carbamoyl}-1H-indazol-1-yl)methyl] piperidine-1-carboxylate] | 6.00 to 7.00 | 7.00 to 10.00
7 | Cc1cc(NC(=O)c2c[nH]c3ncc(F)cc23)ccc1-c1n[nH]c(=O)c2ccccc12 [Example 308, 5-fluoro-N-[3-methyl-4-(4-oxo-3,4-dihydrophthalazin-1-yl)phenyl]-1H-pyrrolo [2,3-b]pyridine-3-carboxamide] | 7.00 to 10.00 | 7.00 to 10.00
8 | COc1cccc2cc(C(=O)Nc3ccc(-c4n[nH]c(=O)c5ccccc45)c(C)c3)[nH]c12 [Example 309, 7-methoxy-N-[3-methyl-4-(4-oxo-3,4-dihydrophthalazin-1-yl)phenyl]-1H-indole-2-carboxamide] | 7.00 to 10.00 | 7.00 to 10.00
9 | Cc1cc(NC(=O)c2cnn3ccccc23)ccc1-c1n[nH]c(=O)c2ccccc12 [Example 310, N-[3-methyl-4-(4-oxo-3,4-dihydrophthalazin-1-yl)phenyl]pyrazolo [1,5-a]pyridine-3-carboxamide] | 6.00 to 7.00 | 7.00 to 10.00
10 | Cc1cc(NC(=O)c2c(C)nc3ccccn23)ccc1-c1n[nH]c(=O)c2ccccc12 [Example 311, 2-methyl-N-[3-methyl-4-(4-oxo-3,4-dihydrophthalazin-1-yl)phenyl]imidazo[1,2-a] pyridine-3-carboxamide] | 7.00 to 10.00 | 7.00 to 10.00
11 | Cc1cc(NC(=O)c2cnc3ccccn23)ccc1-c1n[nH]c(=O)c2ccccc12 [Example 312, N-[3-methyl-4-(4-oxo-3,4-dihydrophthalazin-1-yl)phenyl]imidazo [1,2-a]pyridine-3-carboxamide] | 6.00 to 7.00 | 7.00 to 10.00
12 | Cc1cc(NC(=O)c2nn(CC3CCOCC3)c3ccccc23)ccc1-c1n[nH]c(=O)c2ccccc12 [Example 313, N-[3-methyl-4-(4-oxo-3,4-dihydrophthalazin-1-yl)phenyl]-1-(oxan-4-ylmethyl)-1H-indazole-3-carboxamide] | 7.00 to 10.00 | 7.00 to 10.00
13 | Cc1cc(NC(=O)c2nn(CC3(C)COC3)c3ccccc23)ccc1-c1n[nH]c(=O)c2ccccc12 [Example 314, N-[3-methyl-4-(4-oxo-3,4-dihydrophthalazin-1-yl)phenyl]-1-[(3-methyloxetan-3-yl)methyl]-1H-indazole-3-carboxamide] | 7.00 to 10.00 | 7.00 to 10.00
14 | CC(C)(O)Cn1nc(C(=O)Nc2ccc(-c3n[nH]c(=O)c4ccccc34)c(Cl)c2)c2ccccc21 [Example 315, N-[3-chloro-4-(4-oxo-3,4-dihydrophthalazin-1-yl)phenyl]-1-(2-hydroxy-2-methylpropyl)-1H-indazole-3-carboxamide] | 7.00 to 10.00 | 7.00 to 10.00
15 | CC(C)(C)OC(=O)N1CC(Cn2nc(C(=O)Nc3ccc(-c4n[nH]c(=O)c5ccccc45)c(Cl)c3)c3ccccc32)C1 [Example 316, tert-butyl 3-[(3-{[3-chloro-4-(4-oxo-3,4-dihydrophthalazin-1-yl)phenyl]carbamoyl}-1H-indazol-1-yl)methyl] azetidine-1-carboxylate] | 6.00 to 7.00 | 7.00 to 10.00
16 | O=C(Nc1ccc(-c2n[nH]c(=O)c3ccccc23)c(Cl)c1)c1cnc2ccccn12 [Example 317, N-[3-chloro-4-(4-oxo-3,4-dihydrophthalazin-1-yl)phenyl]imidazo[1,2-a] pyridine-3-carboxamide] | 7.00 to 10.00 | 7.00 to 10.00

Row | Compound | pIC50 (ROCK1) | pIC50 (ROCK2)
17 | O=C(Nc1ccc(-c2n[nH]c(=O)c3ccccc23)c(Cl)c1)c1nn(CC2CCOCC2)c2ccccc12 [Example 318, N-[3-chloro-4-(4-oxo-3,4-dihydrophthalazin-1-yl)phenyl]-1-(oxan-4-ylmethyl)-1H-indazole-3-carboxamide] | 7.00 to 10.00 | 7.00 to 10.00
18 | O=C(Nc1ccc(-c2n[nH]c(=O)c3ccccc23)c(Cl)c1)c1nn(CC2CCOC2)c2ccccc12 (centres unmarked) [Example 319, N-[3-chloro-4-(4-oxo-3,4-dihydrophthalazin-1-yl)phenyl]-1-(oxolan-3-ylmethyl)-1H-indazole-3-carboxamide] | 7.00 to 10.00 | 7.00 to 10.00
19 | CC1(Cn2nc(C(=O)Nc3ccc(-c4n[nH]c(=O)c5ccccc45)c(Cl)c3)c3ccccc32)COC1 [Example 320, N-[3-chloro-4-(4-oxo-3,4-dihydrophthalazin-1-yl)phenyl]-1-[(3-methyloxetan-3-yl)methyl]-1H-indazole-3-carboxamide] | 7.00 to 10.00 | 7.00 to 10.00
20 | Cc1cc(NC(=O)c2nn(CC3CCN(CCCCO)CC3)c3ccccc23)ccc1-c1n[nH]c(=O)c2ccccc12 [Example 321, 1-((1-(4-Hydroxybutyl)piperidin-4-yl)methyl)-N-(3-methyl-4-(4-oxo-3,4-dihydrophthalazin-1-yl)phenyl)-1H-indazole-3-carboxamide] | 7.00 to 10.00 | 6.00 to 7.00
21 | O=C(Nc1ccc(-c2n[nH]c(=O)c3ccccc23)cc1)c1nn(CC2CCN(CCCCO)CC2)c2ccccc12 [Example 322, 1-((1-(4-Hydroxybutyl)piperidin-4-yl)methyl)-N-(4-(4-oxo-3,4-dihydrophthalazin-1-yl)phenyl)-1H-indazole-3-carboxamide] | 7.00 to 10.00 | 6.00 to 7.00
22 | COc1ccc2c(=O)[nH]cc(-c3ccc(NC(=O)N4CCc5ccccc54)cc3C)c2c1 [Example 323, N-(4-(6-Methoxy-1-oxo-1,2-dihydroisoquinolin-4-yl)-3-methylphenyl)indoline-1-carboxamide] | 7.00 to 10.00 | 7.00 to 10.00
23 | Cc1cc(NC(=O)N2CCc3ccccc32)ccc1-c1n[nH]c(=O)c2ccccc12 [Example 324, N-(3-Methyl-4-(4-oxo-3,4-dihydrophthalazin-1-yl)phenyl)indoline-1-carboxamide] | 7.00 to 10.00 | 7.00 to 10.00
24 | Cc1cc(NC(=O)c2cnn3cc(OCCN4CCCC4)ccc23)ccc1-c1n[nH]c(=O)c2ccccc12 [Example 325, N-[3-methyl-4-(4-oxo-3,4-dihydrophthalazin-1-yl)phenyl]-6-[2-(pyrrolidin-1-yl)ethoxy] pyrazolo[1,5-a]pyridine-3-carboxamide] | 6.00 to 7.00 | 7.00 to 10.00
25 | Cc1cc(NC(=O)c2nn(CC3CNC3)c3ccccc23)ccc1-c1n[nH]c(=O)c2ccccc12 [Example 326, 1-(Azetidin-3-ylmethyl)-N-(3-methyl-4-(4-oxo-3,4-dihydrophthalazin-1-yl)phenyl)-1H-indazole-3-carboxamide, TFA] | 7.00 to 10.00 | 6.00 to 7.00
26 | O=C(O)Cn1nc(C(=O)Nc2ccc(-c3n[nH]c(=O)c4ccccc34)cc2)c2ccccc21 [Example 328, 2-(3-{[4-(4-Oxo-3,4-dihydrophthalazin-1-yl)phenyl]carbamoyl}-1H-indazol-1-yl)acetic Acid] | 6.00 to 7.00 | 7.00 to 10.00
27 | CC(=O)N1CC(Cn2nc(C(=O)Nc3ccc(-c4n[nH]c(=O)c5ccccc45)c(Cl)c3)c3ccccc32)C1 [Example 329, 1-((1-Acetylazetidin-3-yl)methyl)-N-(3-chloro-4-(4-oxo-3,4-dihydrophthalazin-1-yl)phenyl)-1H-indazole-3-carboxamide] | 7.00 to 10.00 | 7.00 to 10.00
28 | Cc1cc(NC(=O)c2nn(CC3CN(C)C3)c3ccccc23)ccc1-c1n[nH]c(=O)c2ccccc12 [Example 330, N-(3-Methyl-4-(4-oxo-3,4-dihydrophthalazin-1-yl)phenyl)-1-((1-methylazetidin-3-yl)methyl)-1H-indazole-3-carboxamide] | 7.00 to 10.00 | 6.00 to 7.00
29 | O=C(O)CCn1nc(C(=O)Nc2ccc(-c3n[nH]c(=O)c4ccccc34)cc2)c2ccccc21 [Example 331, 3-(3-((4-(4-Pxo-3,4-dihydrophthalazin-1-yl)phenyl)carbamoyl)-1H-indazol-1-yl)propanoic acid] | 6.00 to 7.00 | 7.00 to 10.00
30 | COC(=O)CCn1nc(C(=O)Nc2ccc(-c3n[nH]c(=O)c4ccccc34)cc2)c2ccccc21 [Example 332, Methyl 3-(3-((4-(4-oxo-3,4-dihydrophthalazin-1-yl)phenyl)carbamoyl)-1H-indazol-1-yl)propanoate] | 7.00 to 10.00 | 7.00 to 10.00
31 | CC(C)(O)CCn1nc(C(=O)Nc2ccc(-c3n[nH]c(=O)c4ccccc34)cc2)c2ccccc21 [Example 333, 1-(3-Hydroxy-3-methylbutyl)-N-(4-(4-oxo-3,4-dihydrophthalazin-1-yl)phenyl)-1H-indazole-3-carboxamide] | 7.00 to 10.00 | 7.00 to 10.00
